# Target: hMRGX2 (CHO-K1 cells overexpressing MRGX2) (Homo sapiens (Human), UniProt Q96LB1)
# Assay: In vitro inhibition (EC50) of intracellular calcium flux, FLIPR Tetra, substance P stimulation
# Assay type: cell-based
# Conditions: stimulated with MRGX2 ligand substance P, FLIPR Calcium 5, read-out: hMRGX2 Cellular Potency (pEC50) (converted)
# Method: In Vitro Inhibition (EC50) of Intracellular Calcium Flux
# The release of intracellular calcium following stimulation of cells with substance P in the presence or absence of inhibitor compounds was measured using the FLIPR Tetra® system. CHO-K1 cells overexpressing MRGX2 were seeded into 384-well plates (Black clear bottom, TC-treated, Fisher #07-200-655) and incubated overnight to allow for cell attachment. Media was removed, and 1× loading buffer (FLIPR® Calcium 5 assay solution, Molecular Devices, per manufacturer specifications) was added. The plates were incubated at 37° C. for 30 minutes. Test compounds were added to cells (11-point dose response, 10 µM maximum concentration) and fluorescence measured (120 seconds, in real time) using the FLIPR Tetra® system. Immediately following, MRGX2 ligand substance P was added at a final concentration of 1 µM and fluorescence measured (120 seconds, in real time) using the FLIPR Tetra® system. The data for the examples are reported as pEC50.
# Chain of hMRGX2 (CHO-K1 cells overexpressing MRGX2) (Q96LB1 whole entry): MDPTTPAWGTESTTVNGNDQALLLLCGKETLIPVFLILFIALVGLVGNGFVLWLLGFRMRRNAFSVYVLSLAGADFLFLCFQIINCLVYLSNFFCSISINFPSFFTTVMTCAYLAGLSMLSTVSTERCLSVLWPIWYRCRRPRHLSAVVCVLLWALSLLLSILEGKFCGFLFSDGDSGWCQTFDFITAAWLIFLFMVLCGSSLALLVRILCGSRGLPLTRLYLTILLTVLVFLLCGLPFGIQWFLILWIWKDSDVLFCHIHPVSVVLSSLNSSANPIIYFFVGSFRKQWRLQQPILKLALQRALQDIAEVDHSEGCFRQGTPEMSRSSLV
row,EC50 [nM],Structure (SMILES)
1,27.3,"COC(C)CCNC1=NS(=O)(=O)c2cccc(-c3cccc(F)c3Cl)c2N1 (racemic) [Example 153, 5-(2-chloro-3-fluorophenyl)-3-((3-methoxybutyl)amino)-4H-benzo[e][1,2,4]thiadiazine 1,1-dioxide]"
2,443,"CCNC1=NS(=O)(=O)c2cccc(-c3cc(F)ccc3F)c2N1 [Example 143, 5-(2,5-difluorophenyl)-3-(ethylamino)-4H-benzo[e][1,2,4]thiadiazine 1,1-dioxide]"
3,233,"Cc1cnccc1-c1cccc2c1NC(Nc1ccc(C(C)C)cc1)=NS2(=O)=O [Example 113, 3-((4-isopropylphenyl)amino)-5-(3-methylpyridin-4-yl)-4H-benzo[e][1,2,4]thiadiazine 1,1-dioxide]"
4,32.2,"CO[C@H](C)CCNC1=NS(=O)(=O)c2cccc(-c3cccc(F)c3Cl)c2N1 (single isomer, unassigned) [Example 154]"
5,13.2,"O=S1(=O)N=C(NCc2ccc(F)cc2)Nc2c(-c3ccnc(F)c3Cl)cccc21 [Example 54, 5-(3-chloro-2-fluoropyridin-4-yl)-3-((4-fluorobenzyl)amino)-4H-benzo[e][1,2,4]thiadiazine 1,1-dioxide]"
6,75.2,"O=S1(=O)N=C(NCc2ccccc2)Nc2c(-c3cc(F)cc(F)c3)cccc21 [Example 88, 3-(benzylamino)-5-(3,5-difluorophenyl)-4H-benzo[e][1,2,4]thiadiazine 1,1-dioxide]"
7,40.6,"COCCNC1=NS(=O)(=O)c2cc(F)cc(-c3ccccc3Cl)c2N1 [Example 14, 5-(2-chlorophenyl)-7-fluoro-3-((2-methoxyethyl)amino)-4H-benzo[e][1,2,4]thiadiazine 1,1-dioxide]"
8,366,"COCCNC1=NS(=O)(=O)c2cccc(-c3cc(F)ccc3F)c2N1 [Example 141, 5-(2,5-difluorophenyl)-3-((2-methoxyethyl)amino)-4H-benzo[e][1,2,4]thiadiazine 1,1-dioxide]"
9,93.3,"O=S1(=O)N=C(NCCOCC(F)F)Nc2c(-c3cccc(F)c3Cl)cccc21 [Example 160, 5-(2-chloro-3-fluorophenyl)-3-((2-(2,2-difluoroethoxy)ethyl)amino)-4H-benzo[e][1,2,4]thiadiazine 1,1-dioxide]"
10,62.4,"CCNC1=NS(=O)(=O)c2cc(F)cc(-c3ccccc3Cl)c2N1 [Example 15, 5-(2-chlorophenyl)-3-(ethylamino)-7-fluoro-4H-benzo[e][1,2,4]thiadiazine 1,1-dioxide]"
11,244,"COC(C)CNC1=NS(=O)(=O)c2cccc(-c3cc(F)ccc3F)c2N1 (stereo not shown) [Example 142, 5-(2,5-difluorophenyl)-3-((2-methoxypropyl)amino)-4H-benzo[e][1,2,4]thiadiazine 1,1-dioxide]"
12,173,"CN1CCOC(CNC2=NS(=O)(=O)c3cccc(-c4cccc(F)c4Cl)c3N2)C1 (stereo not shown) [Example 57, 5-(2-chloro-3-fluorophenyl)-3-(((4-methylmorpholin-2-yl)methyl)amino)-4H-benzo[e][1,2,4]thiadiazine 1,1-dioxide]"
13,70.1,"Cc1n[nH]cc1-c1cccc2c1NC(Nc1ccc(C(C)C)cc1)=NS2(=O)=O [Example 106, 3-((4-isopropylphenyl)amino)-5-(3-methyl-1H-pyrazol-4-yl)-4H-benzo[e][1,2,4]thiadiazine 1,1-dioxide]"
14,19,"O=S1(=O)N=C(NCc2ncccc2F)Nc2c(-c3ccnc(F)c3Cl)cccc21 [Example 51, 5-(3-chloro-2-fluoropyridin-4-yl)-3-(((3-fluoropyridin-2-yl)methyl)amino)-4H-benzo[e][1,2,4]thiadiazine 1,1-dioxide]"
15,34.6,"O=S1(=O)N=C(NCc2ccc(F)cc2)Nc2c(-c3cc(F)cc(F)c3)cccc21 [Example 75, 5-(3,5-difluorophenyl)-3-((4-fluorobenzyl)amino)-4H-benzo[e][1,2,4]thiadiazine 1,1-dioxide]"
16,197,"CC(C)c1ccc(NC2=NS(=O)(=O)c3cccc(-c4ccccc4Cl)c3N2)cn1 [Example 117, 5-(2-chlorophenyl)-3-((6-isopropylpyridin-3-yl)amino)-4H-benzo[e][1,2,4]thiadiazine 1,1-dioxide]"
17,17,"O=S1(=O)N=C(NCc2cccc(F)n2)Nc2c(-c3cccc(F)c3Cl)cccc21 [Example 148, 5-(2-chloro-3-fluorophenyl)-3-(((6-fluoropyridin-2-yl)methyl)amino)-4H-benzo[e][1,2,4]thiadiazine 1,1-dioxide]"
18,389,"CNC1=NS(=O)(=O)c2cccc(-c3cccc(F)c3F)c2N1 [Example 26, 5-(2,3-difluorophenyl)-3-(methylamino)-4H-benzo[e][1,2,4]thiadiazine 1,1-dioxide]"
19,20,"O=S1(=O)N=C(NCc2nccs2)Nc2c(-c3cccc(F)c3Cl)cc(F)cc21 [Example 5, 5-(2-chloro-3-fluorophenyl)-7-fluoro-3-((thiazol-2-ylmethyl)amino)-4H-benzo[e][1,2,4]thiadiazine 1,1-dioxide]"

row,EC50 [nM],Structure (SMILES)
1,216,"COCCNC1=NS(=O)(=O)c2cccc(-c3cc(F)ccc3Cl)c2N1 [Example 144, 5-(2-chloro-5-fluorophenyl)-3-((2-methoxyethyl)amino)-4H-benzo[e][1,2,4]thiadiazine 1,1-dioxide]"
2,601,"O=S1(=O)N=C(NCCc2cccnc2)Nc2c(-c3cccc(F)c3Cl)cccc21 [Example 69, 5-(2-chloro-3-fluorophenyl)-3-((2-(pyridin-3-yl)ethyl)amino)-4H-benzo[e][1,2,4]thiadiazine 1,1-dioxide]"
3,562,"COCCCNC1=NS(=O)(=O)c2cccc(-c3cccc(F)c3Cl)c2N1 [Example 151, 5-(2-chloro-3-fluorophenyl)-3-((3-methoxypropyl)amino)-4H-benzo[e][1,2,4]thiadiazine 1,1-dioxide]"
4,190,"CNC1=NS(=O)(=O)c2ccc(F)c(-c3ccccc3Cl)c2N1 [Example 138, 5-(2-chlorophenyl)-6-fluoro-3-(methylamino)-4H-benzo[e][1,2,4]thiadiazine 1,1-dioxide]"
5,24.9,"CO[C@@H](C)CNC1=NS(=O)(=O)c2cccc(-c3cc(F)cc(F)c3F)c2N1 (single isomer, unassigned) [Example 128]"
6,54.8,"Cc1nn(C)cc1-c1cccc2c1NC(Nc1cccc(C(C)C)c1)=NS2(=O)=O [Example 115, 5-(1,3-dimethyl-1H-pyrazol-4-yl)-3-((3-isopropylphenyl)amino)-4H-benzo[e][1,2,4]thiadiazine 1,1-dioxide]"
7,766,"CC(C)c1ccc(NC2=NS(=O)(=O)c3cccc(-n4cccn4)c3N2)cc1 [Example 100, 3-((4-isopropylphenyl)amino)-5-(1H-pyrazol-1-yl)-4H-benzo[e][1,2,4]thiadiazine 1,1-dioxide]"
8,305,"O=S1(=O)N=C(NCCF)Nc2c(-c3ccccc3Cl)cccc21 [Example 45, 5-(2-chlorophenyl)-3-((2-fluoroethyl)amino)-4H-benzo[e][1,2,4]thiadiazine 1,1-dioxide]"
9,88.5,"O=S1(=O)N=C(NCc2ccccn2)Nc2c(-c3cc(F)cc(F)c3F)cccc21 [Example 131, 3-((pyridin-2-ylmethyl)amino)-5-(2,3,5-trifluorophenyl)-4H-benzo[e][1,2,4]thiadiazine 1,1-dioxide]"
10,179,"CCOC(C)CNC1=NS(=O)(=O)c2cccc(-c3cccc(F)c3Cl)c2N1 (stereo not shown) [Example 58, 5-(2-chloro-3-fluorophenyl)-3-((2-ethoxypropyl)amino)-4H-benzo[e][1,2,4]thiadiazine 1,1-dioxide]"
11,93.3,"CO[C@H](C)CNC1=NS(=O)(=O)c2cccc(-c3cccc(F)c3Cl)c2N1 [Example 47, (R)-5-(2-chloro-3-fluorophenyl)-3-((2-methoxypropyl)amino)-4H-benzo[e][1,2,4]thiadiazine 1,1-dioxide]"
12,87.1,"COC(C)CNC1=NS(=O)(=O)c2cccc(-c3cc(F)cc(F)c3F)c2N1 (stereo not shown) [Example 127, 3-((2-methoxypropyl)amino)-5-(2,3,5-trifluorophenyl)-4H-benzo[e][1,2,4]thiadiazine 1,1-dioxide]"
13,368,"Cc1cccc(CNC2=NS(=O)(=O)c3cccc(-c4cc(F)cc(F)c4)c3N2)n1 [Example 79, 5-(3,5-difluorophenyl)-3-(((6-methylpyridin-2-yl)methyl)amino)-4H-benzo[e][1,2,4]thiadiazine 1,1-dioxide]"
14,38.2,"COC(C)CNC1=NS(=O)(=O)c2cccc(-c3cccc(F)c3Cl)c2N1 (stereo not shown) [Example 33, 5-(2-chloro-3-fluorophenyl)-3-((2-methoxypropyl)amino)-4H-benzo[e][1,2,4]thiadiazine 1,1-dioxide]"
15,56.2,"CNC1=NS(=O)(=O)c2cccc(-c3cccc(F)c3C3CC3)c2N1 [Example 157, 5-(2-cyclopropyl-3-fluorophenyl)-3-(methylamino)-4H-benzo[e][1,2,4]thiadiazine 1,1-dioxide]"
16,136,"N#Cc1cnc(CNC2=NS(=O)(=O)c3cccc(-c4ccnc(F)c4Cl)c3N2)s1 [Example 55, 2-(((5-(3-chloro-2-fluoropyridin-4-yl)-1,1-dioxido-4H-benzo[e][1,2,4]thiadiazin-3-yl)amino)methyl)thiazole-5-carbonitrile]"
17,249,"CO[C@H](C)CNC1=NS(=O)(=O)c2cccc(-c3cc(F)cc(F)c3)c2N1 (single isomer, unassigned) [Example 85]"
18,320,"N#Cc1c(F)cccc1-c1cccc2c1NC(NCCF)=NS2(=O)=O [Example 149, 2-fluoro-6-(3-((2-fluoroethyl)amino)-1,1-dioxido-4H-benzo[e][1,2,4]thiadiazin-5-yl)benzonitrile]"

# Source: US12247015B2, “3-amino-4H-benzo[e][1,2,4]thiadiazine 1,1-dioxide derivatives as inhibitors of MRGX2” (Solent Therapeutics, LLC, priority 2019, dated 2025)
